Here are results for 5 molecules from patent US20190328687A1, “Antibacterial Compounds” (priority 2014, published 2019).

As usually defined, the pIC50 is −log10 of the IC50, conventionally taken in molar units. A word on the MIC: it is the least concentration at which growth counts as inhibited.

For one data set, the system named is M. tuberculosis. The conditions noted are these: cited from earlier work.
In another data set the test system is pyruvate oxidoreductases. The conditions noted are these: cited from earlier work.
In the next data set the test system is E. coli 7KOΔtolC (DE3). The experiment in a line: 7KOΔtolC(DE3) cell sensitivity assay.
Data set [1] deals with Staphylococcus aureus ATCC 43300 (MRSA). As to the kind of experiment: Growth inhibition of Gram positive bacteria: IC50 measurements. To be noted: ATCC43300|MRSA, 4 h, read-out: IC50 against Staphylococcus aureus ATCC 43300 (MRSA).
Experimental: (§1) Data are the mean of two independent replicates (using duplicate technical replicates for each independent experiment) and error bars indicate standard error of the mean.
(§2) Data are the mean of two technical replicates.
(§3) 15 mL tubes containing 2 mL tryptic soy broth (TSB) were inoculated with the Gram positive bacterial strains Staphylococcus aureus ATCC 43300 (MRSA), Bacillus thuringiensis P.1.IPS-80 serovar israelensis, or Listeria welshimeri ATCC 35897. Strains were incubated overnight at 37° C. with shaking at 200 rpm. The following day, the overnight cultures were diluted in fresh TSB to give an OD600 of approximately 0.3. Duplicate 40 μL aliquots of this were then added to individual wells of a sterile 384 well plate, containing 40 μL TSB medium supplemented with serial dilutions of 2× niclosamide or nitazoxanide, including 0 μM controls. Culture turbidity was monitored by optical density at 600 nm at 4 h post-challenge. Percentage growth inhibition values were calculated by comparison of the niclosamide- or nitazoxanide-challenged cells with the unchallenged control for each strain, after subtracting the initial absorbance values (t=0 h). […]
Data set [2] has as its system Listeria welshimeri ATCC 35897. The data set is described as above. The conditions noted are these: ATCC35897, 4 h, read-out: IC50 against Listeria welshimeri ATCC 35897.
Experimental: as §1, §2, §3
In data set [3] the test system is E. coli 7KOΔtolC strains over-expressing nitroreductase candidates from plasmid pUCX. As to the kind of experiment: Cell sensitivity assay, nitroreductase over-expressing strains. Type of data set: cell-based. To be noted: for pIC50: Escherichia coli.
The next data set relates to E. coli 6KO. The experiment in a line: Toxicity to E. coli host strain. The conditions noted are these: even if not over-expressing an active nitroreductase. It is filed as cell-based. From the text:
Without wishing to be bound by theory, the applicants hypothesise that a key difference between the niclosamide-sensitive SOS-R2 and niclosamide-resistant 6KO strains is that the former carry a deletion of the tolC gene, which encodes an efflux pump capable of exporting numerous xenobiotic and other compounds directly across both cell membranes of Gram negative bacterial cells.

In data set [4] the test system is Mycobacterium tuberculosis. The conditions noted are these: cited from earlier work.
Data set [5] has as its system quorum sensing system in Pseudomonas aeruginosa. The conditions noted are these: among FDA-approved drugs tested; cited from earlier work.
The test system of data set [6] is methicillin resistant Staphylococcus aureus (MRSA; ATCC43300). As to the kind of experiment: Heatmap growth inhibition assay, MRSA. The conditions noted are these: single agent.
A further data set deals with E. coli 7KOΔtolC. The experiment in a line: Cell sensitivity assay (growth, OD600).
The next data set has as its system E. coli 7KO. The experiment in a line: Cell sensitivity assay (growth, OD600).
Data set [7] is described as follows: Heatmap growth inhibition assay, drug-resistant clinical isolates. The conditions noted are these: read-out: IC50 against clinical isolates.
The next data set has as its system Salmonella typhimurium. The conditions noted are these: cited from earlier work.
The test system of data set [8] is efflux pumps over-expressed in P. aeruginosa. The conditions noted are these: growth inhibition in presence of levofloxacin; cited from earlier work.
Another data set has as its target AcrAB-TolC (Escherichia coli, UniProt P02930+P31224). To be noted: cited from earlier work.

pIC50: −log10 of the molar value. Read-outs that look alike come from different tables or passages of the source. Peptide text beside a SMILES is read from it. * marks the point of attachment. βNA = c1ccc2cc(N*)ccc2c1

Chain of AcrAB-TolC (P31224 whole entry): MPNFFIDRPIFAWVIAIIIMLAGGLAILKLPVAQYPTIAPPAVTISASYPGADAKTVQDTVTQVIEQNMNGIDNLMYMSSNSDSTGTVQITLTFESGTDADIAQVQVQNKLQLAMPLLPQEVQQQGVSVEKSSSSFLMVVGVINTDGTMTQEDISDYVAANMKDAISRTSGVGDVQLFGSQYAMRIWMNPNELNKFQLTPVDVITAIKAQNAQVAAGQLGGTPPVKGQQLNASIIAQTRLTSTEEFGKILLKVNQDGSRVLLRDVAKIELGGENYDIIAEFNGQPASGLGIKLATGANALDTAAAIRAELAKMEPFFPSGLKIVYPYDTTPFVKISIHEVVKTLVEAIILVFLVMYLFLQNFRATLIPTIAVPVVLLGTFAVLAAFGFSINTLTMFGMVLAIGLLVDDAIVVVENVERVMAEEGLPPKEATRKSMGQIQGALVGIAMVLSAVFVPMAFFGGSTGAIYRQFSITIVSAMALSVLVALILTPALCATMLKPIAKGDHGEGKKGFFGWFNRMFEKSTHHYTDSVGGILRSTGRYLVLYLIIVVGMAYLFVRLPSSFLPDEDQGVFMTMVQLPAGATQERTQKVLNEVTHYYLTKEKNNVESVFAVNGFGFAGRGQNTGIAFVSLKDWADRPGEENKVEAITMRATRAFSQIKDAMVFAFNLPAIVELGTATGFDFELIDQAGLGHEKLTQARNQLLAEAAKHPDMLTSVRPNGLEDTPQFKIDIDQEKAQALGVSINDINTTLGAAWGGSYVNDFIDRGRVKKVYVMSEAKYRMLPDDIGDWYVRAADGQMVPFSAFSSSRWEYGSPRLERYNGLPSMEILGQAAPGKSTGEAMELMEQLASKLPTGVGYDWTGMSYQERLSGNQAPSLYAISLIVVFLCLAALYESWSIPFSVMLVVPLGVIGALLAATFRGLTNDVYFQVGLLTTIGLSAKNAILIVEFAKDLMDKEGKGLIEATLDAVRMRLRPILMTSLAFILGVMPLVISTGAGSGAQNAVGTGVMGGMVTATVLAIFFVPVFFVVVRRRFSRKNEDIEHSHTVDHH
Chain of AcrAB-TolC (P02930 23-493): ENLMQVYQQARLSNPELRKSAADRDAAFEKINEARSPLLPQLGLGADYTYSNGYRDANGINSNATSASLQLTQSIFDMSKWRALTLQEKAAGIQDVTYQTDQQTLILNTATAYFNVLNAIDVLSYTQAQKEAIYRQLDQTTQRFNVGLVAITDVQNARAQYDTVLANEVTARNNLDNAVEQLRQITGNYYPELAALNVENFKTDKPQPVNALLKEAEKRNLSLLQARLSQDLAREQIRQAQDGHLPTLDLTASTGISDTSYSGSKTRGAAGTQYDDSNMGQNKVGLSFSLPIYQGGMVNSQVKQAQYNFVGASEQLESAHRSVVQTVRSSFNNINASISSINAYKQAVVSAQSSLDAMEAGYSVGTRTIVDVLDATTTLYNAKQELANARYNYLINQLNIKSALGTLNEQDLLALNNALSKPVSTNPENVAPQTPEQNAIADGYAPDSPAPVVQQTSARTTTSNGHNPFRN
Chain of AcrAB-TolC (P0AE06 25-397, further chain): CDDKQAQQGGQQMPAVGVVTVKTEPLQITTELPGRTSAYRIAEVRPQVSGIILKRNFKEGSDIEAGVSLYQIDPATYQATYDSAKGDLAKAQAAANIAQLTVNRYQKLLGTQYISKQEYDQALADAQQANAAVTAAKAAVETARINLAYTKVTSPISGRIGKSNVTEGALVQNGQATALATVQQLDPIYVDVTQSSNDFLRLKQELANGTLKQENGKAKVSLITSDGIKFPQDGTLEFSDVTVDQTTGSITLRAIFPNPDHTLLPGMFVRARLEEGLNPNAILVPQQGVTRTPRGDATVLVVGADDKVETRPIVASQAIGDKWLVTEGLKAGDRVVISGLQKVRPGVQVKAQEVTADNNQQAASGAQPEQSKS
Experimental for E. coli 7KOΔtolC (DE3): Overnight cultures of E. coli 7KOΔtolC (DE3) strains overexpressing either E. coli NfsA (NfsA_Ec), E. coli NfsB (NfsB_Ec) or containing a plasmid only (pET28) control are used to inoculate fresh aliquots of assay media (LB media supplemented with 50 μg·mL^−1 kanamycin and 50 μM IPTG) which are incubated at 30° C., 200 rpm for 2.5 h. 40 μL aliquots of each culture are then added to 40 μL aliquots of assay media containing 2× the desired final concentration of nitazoxanide (i.e., resulting in a final 2-fold dilution series from 20 down to 2.5 μM) or a 0 μM media only control. The plate is then incubated at 30° C., 200 rpm for 4 h. Culture turbidity is monitored by optical density at 600 nm in order to calculate percentage growth relative to the 0 μM control for each strain. Data are the mean of at least two independent experiments±SEM.
Individual wells of a 96-well microtitre plate containing 100 μL LB supplemented with 50 μg mL^−1 are inoculated in duplicate with 7KOΔtolC(DE3) strains overexpressing E. coli nfsA, E. coli nfsB or a pET28 empty plasmid control. Strains are incubated overnight at 30° C. in a Heidolph titramax platform shaker at 900 rpm. 30 μL of each overnight culture is used to inoculate duplicate cultures of 600 μL LB supplemented with 50 μg mL^−1 kanamycin and 50 μM IPTG in a 96 well deep culture plate (Axygen). Cultures are incubated at 30° C., 1200 rpm for 2.5 h. 40 μL aliquots from each culture are then added to individual wells of a sterile 384 well plate, containing 40 μL LB medium supplemented with 100 μg mL^−1 kanamycin, 50 μM IPTG and serial dilutions of nitazoxanide, including 0 μM controls. Each nitroreductase over-expression strain is tested in duplicate (independent replicates). Culture turbidity is monitored by optical density at 600 nm 4 h post-challenge. Percentage growth values are calculated by comparison of the nitazoxanide-challenged cells with the unchallenged control, after subtracting the initial absorbance values (t=0 h). Microtitre plate absorbance readings are measured using an Eon Biotek Reader (BioTek Instruments Inc.).

As for `CC(=O)Oc1ccccc1C(=O)Nc1ncc([N+](=O)[O-])s1` [Nitazoxanide, 2-acetyloxy-N-(5-nitro 2-thiazolyl)benzamide], the “Effect on membrane potential” value in the data set on M. tuberculosis was “disrupts membrane potential and pH homeostasis”; in the data set with M. tuberculosis (listed as nitazoxanide) it was “uncoupled the membrane potential”. In addition, in the data set with pyruvate oxidoreductases, the “Inhibition of pyruvate oxidoreductases” value is listed as “inhibits pyruvate oxidoreductases”. Further, the “Toxicity relative to niclosamide (less toxic)” value in the data set with E. coli 7KOΔtolC (DE3) (7KOΔtolC (DE3) cells) is listed as “approximately 2 orders of magnitude”. Moreover, the “Effect of NfsA and NfsB over-expression on toxicity” value in the data set on E. coli 7KOΔtolC (DE3) (7KOΔtolC (DE3), pET28 NfsA or NfsB) is recorded as “able to defend against nitazoxanide toxicity”. The pIC50 with E. coli 7KOΔtolC (DE3) (Escherichia coli, 4 h, read-out: IC50 in 7KOΔtolC (DE3) cells) was 5.28; in data set [1], 5.54; in data set [2], 5.06.

As to `O=C(Nc1ccc([N+](=O)[O-])cc1Cl)c1cc(Cl)ccc1O` [Niclosamide, N-(2′-chloro-4′-nitrophenyl)-5-chlorosalicylamide], the “IC50, strains over-expressing NfsA, NfsB and AzoR” value in data set [3] (7KOΔtolC, pUCX NfsA, NfsB or AzoR) is listed as “low micromolar”. Besides, the pIC50 in [3] (read-out: IC50, MdaB over-expressing strain) is 7.08; in data set [3] (read-out: IC50, NemA over-expressing strain), 6.52; in [3] (read-out: IC50, empty plasmid control strain), 7.33; in the data set with E. coli 7KOΔtolC (Escherichia coli, 4 h, read-out: IC50 for 7KOΔtolC), 6.92; in the data set with E. coli 7KO (Escherichia coli, 7KO, 4 h, read-out: IC50 for 7KO), below 5.30; in data set [1], 6.88. Further, the pIC50 in data set [2] is 6.55; in data set [7], below 4.70. In the data set with E. coli 6KO, the “Toxicity to 6KO strain” value is given as “no longer found to be toxic”. For the same molecule, in data set [4], the MIC was 0.5 to 1 µg/mL. For the same molecule, in data set [4] (grown in low oxygen conditions), the “Activity against non-replicating M. tuberculosis” value is reported as “active”. The “Effect on membrane potential” value with M. tuberculosis is given as “uncoupled the membrane potential”. Moreover, the Anti-quorum sensing activity result in [5] is given as “highest anti-quorum sensing activity”. The “Sensitivity of MRSA (concentration level)” value in [6] is “nanomolar concentrations”.

As for `Nc1ccc([N+](=O)[O-])cc1Cl` [2-chloro-4-nitroaniline], the Mutagenicity result in the data set with Salmonella typhimurium is “mutagenic product”. Also, the “Toxicity relative to niclosamide” value in the data set on E. coli 7KOΔtolC (growth inhibition of 7KOΔtolC, FIG. 15) is “at least three orders of magnitude less toxic than niclosamide”.

In the case of `O=C(O)c1cc(Cl)ccc1O` [5-chlorosalicyclic acid], the Mutagenicity entry in the data set with Salmonella typhimurium was “non-mutagenic”.

With `N=C(N)NCCC[C@H](NC(=O)[C@@H](N)Cc1ccccc1)C(=O)Nc1ccc2ccccc2c1` [PAβN, phenylalanine-arginine β-napthylamide] (H-Phe-Arg-βNA), the “Activity against P. aeruginosa efflux pumps” value in [8] is “active against each of the efflux pumps”. Besides, at AcrAB-TolC, the “Activity against AcrAB-TolC” value is listed as “active against AcrAB-TolC”. Moreover, in data set [6], the “Sensitivity of MRSA (concentration level)” value is on record as “micromolar levels”. For the same molecule, in the data set with E. coli 7KO (25 μM or 50 μM PAβN, niclosamide 10 μM down to 156 nM), the “Effect of PAβN on niclosamide sensitivity” value is “promote niclosamide sensitivity in the 7KO strain in a dose-dependent manner”.
